From US11793774B2, “Chiral beta-hydroxyethylamines and their use in the treatment of hyperglycemia” (ATROGI AB, priority 2017, dated 2023)

What was measured:
L6-myotubes = assay: Glucose uptake (3H-2-deoxy-glucose) in differentiated L6-myotubes; format: cell-based; settings: agonist final concentration 1×10^−5, 3H-2-deoxy-glucose uptake, relative to isoproterenol
Experimental: L6-myoblasts were grown in Dulbecco's Modified Eagle's Medium (DMEM) containing 4.5 g/l glucose supplemented with 10% fetal bovine serum, 2 mM L-Glutamine, 50 U/ml penicillin, 50 μg/ml streptomycin and 10 mM HEPES. Cells were plated at 1×10^5 cells per ml in 24-well plates. After reaching 90% confluence the cells were grown in medium containing 2% FBS for 7 days where upon cells differentiated into myotubes. Differentiated L6-myotubes were serum-starved over night in medium containing 0.5% fatty-acid free BSA and stimulated with agonist, final concentration 1×10^−5. After 1 h 40 min cells were washed with warm, glucose free medium or PBS and another portion of agonist was added to glucose free medium. After 20 min the cells were exposed to 50 nM ^3H-2-deoxy-glucose for another 10 min before washed in ice cold glucose free medium or PBS and lysed in 0.2 M NaOH for 1 h in 60° C.

[1] = tested on: Intracellular cAMP levels; assay: Measurement of intracellular cAMP levels in differentiated cells (alpha screen cAMP kit); format: cell-based; settings: agonist final concentration 1×10^−5, 15 min, 1 mM IBMX, relative to isoproterenol
Experimental: L6-myoblasts were grown in Dulbecco's Modified Eagle's Medium (DMEM) containing 4.5 g/l glucose supplemented with 10% fetal bovine serum, 2 mM L-Glutamine, 50 U/ml penicillin, 50 μg/ml streptomycin and 10 mM HEPES. Cells were plated at 1×10^5 cells per ml in 24-well plates. After reaching 90% confluence the cells were grown in medium containing 2% FBS for 7 days where upon cells differentiated into myotubes.
Differentiated cells were serum-starved over night and stimulated with agonist, final concentration 1×10^−5, for 15 min in stimulation buffer (HBSS supplemented with 1% BSA, 5 mM HEPES and 1 mM IBMX, pH 7.4) The medium was then aspirated and to end the reaction 100 μL of 95% EtOH was added to each well of a 24-well plate and cells were kept in −20° C. over night. The EtOH was let to evaporate and 500 μL of lysis buffer (1% BSA, 5 mM HEPES and 0.3% Tween-20, pH 7.4) was added to each well before put in −80° C. for 30 min and then kept in −20° C. Intracellular cAMP levels were detected using an alpha screen cAMP kit (6760635D from Perkin Elmer). The activity for each compound is compared to that of isoproterenol.

SMILES	Biological example 1: glucose uptake activity compared to that of isoproterenol (L6-myotubes)	Biological example 2: intracellular cAMP activity compared to that of isoproterenol [1]
CCC[C@@H](C)NC[C@H](O)c1cccc(F)c1 [Example 6, (R)-1-(3-fluorophenyl)-2-(((R)-pentan-2-yl)amino)ethan-1-ol]	++ (between 75 and 50%)	− (less than 25%)
CCC[C@@H](C)NC[C@H](O)c1cccc(O)c1 [Example 4, 3-((R)-1-Hydroxy-2-(((R)-pentan-2-yl)amino)ethyl)phenol Hemisulphate]	+++ (activity of more than 75% of that of isoproterenol)	++ (between 75 and 50%)
CCC[C@@H](C)NC[C@H](O)c1ccc(F)cc1 [Example 5, (R)-1-(4-Fluorophenyl)-2-(((R)-pentan-2-yl)amino)ethan-1-ol]	++ (between 75 and 50%)	− (less than 25%)
CCC[C@@H](C)NC[C@H](O)c1ccc(O)cc1 [Example 2, 4-((R)-1-Hydroxy-2-(((R)-pentan-2-yl)amino)ethyl)phenol Hemisulphate]	++ (between 75 and 50%)	+ (between 50 and 25%)
